According to ChEMBL document CHEMBL5346875, “Annual review of KRAS inhibitors in 2022” (Eur J Med Chem, 2023):

Legend:
[1] = system: NCI-H358; assay: Antiproliferative activity against human NCI-H358 cells harboring KRAS G12C mutant assessed as inhibition of cell growth by resazurin dye based assay; format: functional
[2] = Inhibition of ERK phosphorylation in human NCI-H358 cells harboring KRAS G12C mutant by Western blot analysis; format: cell-based
[3] = system: GTPase KRas (Homo sapiens), P01116 [G12S]; assay: Covalent modification of GDP-bound recombinant human KRAS G12S mutant at 10 uM incubated for 1 hr by mass spectrometry analysis relative to control
Chain of GTPase KRas (Homo sapiens), P01116 [G12S] (P01116 whole entry G12S): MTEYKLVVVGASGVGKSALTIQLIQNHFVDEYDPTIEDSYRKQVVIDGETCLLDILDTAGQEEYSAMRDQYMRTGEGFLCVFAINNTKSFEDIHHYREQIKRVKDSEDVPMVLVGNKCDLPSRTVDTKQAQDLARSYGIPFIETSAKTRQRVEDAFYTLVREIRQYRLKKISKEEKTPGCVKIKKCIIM

[4] = system: GTPase KRas (Homo sapiens), P01116 [G12S]; assay: Covalent modification of GDP-bound recombinant human KRAS G12S mutant at 10 uM incubated for 12 hrs by mass spectrometry analysis relative to control
[5] = system: BaF3; assay: Antiproliferative activity against mouse BaF3 cells harboring KRAS G12S mutant assessed as inhibition of cell growth incubated for 72 hrs by CellTiter-Glo luminescent assay; format: functional, cell-based; settings: BaF3, 72 h
[6] = Antiproliferative activity against human KMS-20 cells harboring KRAS G12S mutant assessed as inhibition of cell growth incubated for 72 hrs by CellTiter-Glo luminescent assay; format: functional, cell-based; settings: KMS-20, 72 h
[7] = system: BaF3; assay: Antiproliferative activity against mouse BaF3 cells harboring wild type KRAS assessed as inhibition of cell growth incubated for 72 hrs by CellTiter-Glo luminescent assay; format: functional, cell-based; settings: BaF3, 72 h
[8] = system: GTPase KRas (Homo sapiens), P01116 [G12S]; assay: Covalent modification of GDP-bound recombinant human KRAS G12S mutant at 10 uM incubated for 10 mins by mass spectrometry analysis relative to control
[9] = molecular target: GTPase KRas (Homo sapiens, UniProt P01116, G12S); assay: Inhibition of GTP-bound KRAS G12S mutant in human A549 cells incubated for 2 hrs by immunoblot analysis; format: cell-based
Chain of GTPase KRas (P01116 whole entry G12S): as above

[10] = system: NCI-H358; assay: Antiproliferative activity against human NCI-H358 cells harboring KRAS G12C mutant assessed as inhibition of cell growth; format: functional, cell-based
[11] = system: NCI-H23; assay: Antiproliferative activity against human NCI-H23 cells harboring KRAS G12C mutant assessed as inhibition of cell growth; format: functional, cell-based
[12] = molecular target: Protein cereblon/GTPase KRas (Homo sapiens, UniProt P01116+Q96SW2, G12C); assay: PROTAC activity at CRBN/KRAS G12C mutant in human NCI-H358 cells assessed as induction of KRAS G12C degradation; format: cell-based
Chain of Protein cereblon/GTPase KRas (P01116 whole entry G12C, stated change not applied): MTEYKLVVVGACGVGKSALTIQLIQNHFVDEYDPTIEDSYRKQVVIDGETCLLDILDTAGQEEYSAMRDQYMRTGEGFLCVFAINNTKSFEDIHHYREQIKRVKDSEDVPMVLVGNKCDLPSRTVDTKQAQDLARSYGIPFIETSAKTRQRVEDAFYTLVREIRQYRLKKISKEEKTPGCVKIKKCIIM
Chain of Protein cereblon/GTPase KRas (Q96SW2 whole entry, stated change not applied): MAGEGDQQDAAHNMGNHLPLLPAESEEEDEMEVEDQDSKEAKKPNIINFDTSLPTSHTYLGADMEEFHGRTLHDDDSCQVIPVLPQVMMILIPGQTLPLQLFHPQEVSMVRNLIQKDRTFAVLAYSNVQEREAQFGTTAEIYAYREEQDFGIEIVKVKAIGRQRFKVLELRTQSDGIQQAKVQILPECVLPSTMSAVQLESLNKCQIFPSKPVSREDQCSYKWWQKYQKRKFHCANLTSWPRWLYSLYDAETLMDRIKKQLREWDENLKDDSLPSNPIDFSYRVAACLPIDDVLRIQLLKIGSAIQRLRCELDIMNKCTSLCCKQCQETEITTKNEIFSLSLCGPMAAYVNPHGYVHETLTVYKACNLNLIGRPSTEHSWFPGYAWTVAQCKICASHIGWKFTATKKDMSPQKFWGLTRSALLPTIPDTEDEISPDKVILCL

C=CC(=O)N1CC2(CC(n3nc(-c4ccc5c(cnn5C)c4)c(-c4c(Cl)c(C)cc5[nH]ncc45)c3C)C2)C1 [OPNURASIB]
IC50 [1]: 19 nM | IC50 [2]: 18 nM

CN1CCC[C@H]1COc1nc2c(c(N3CCC4C(=O)OC4C3)n1)CCN(c1cccc3cccc(Cl)c13)C2 (stereo partly drawn)
Activity [3]: 64% | Activity [4]: 100%

O=C1O[C@H]2CN(c3nc(OCC45CCCN4CCC5)nc4c(F)c(-c5cccc6cccc(Cl)c56)ncc34)CC[C@@H]12
IC50 [5]: 2400 nM | IC50 [6]: 7.5 µM | IC50 [7]: 12.5 µM | Activity [8]: 100% | IC50 [9]: 3 µM

C=C(C(=O)N1CCN(c2ncnc3c(F)c(-c4cc(Cl)ccc4OC)c(Cl)cc23)[C@H](C)C1)C(F)(F)F
IC50 [10]: 0.78 µM | IC50 [11]: 1550 nM

COc1cc(Cl)c(-c2cc(Cl)ccc2Cl)cc1C(=O)N1CCN(C(=O)/C=C\C(=O)NCCCCCCNc2cccc3c2C(=O)N(C2CCC(=O)NC2=O)C3=O)CC1 (stereo not drawn)
IC50 [10]: 17.4 µM | DC50 [12]: 1250 nM
